Literature values, collected in US20110206661A1, “TRIMETHOXYPHENYL INHIBITORS OF TYROSINE KINASE” (AUSPEX PHARMACEUTICALS, INC., priority 2010, published 2011).

Settings: human plasma after oral administration of fostamatinib

Compound: COc1cc(Nc2ncc(F)c(Nc3ccc4c(n3)N(COP(=O)(O)O)C(=O)C(C)(C)O4)n2)cc(OC)c1OC [Fostamatinib, 6-[[5-fluoro-2-[(3,4,5-trimethoxyphenyl)amino]-4-pyrimidinyl]amino]-2,2-dimethyl-4-[(phosphonooxy)methyl]-2H-pyrido[3,2-b]-1,4-oxazin-3(4H)-one]
- drug-related compound observed in human plasma: only small amounts
